Results published in patent US6495118B1, “Lipophilic metal complexes for necrosis and infarction imaging” (Schering Aktiengesellschaft, priority 1997, dated 2002).

Key:
[1] = system: rats with induced renal infarctions (necrotic area of the kidney); experiment: MRI experiments on animals with induced renal infarctions; assay type: in vivo; conditions: rat
Procedure: Plasma protein bond: 10% (Europ. Workshop on Magn. Reson. in Medicine, Santiago de Compostela, Spain, Sep. 28-30, 1994).
The induction of the renal infarctions was carried out on anesthetized (Rompun®/Ketavet®, i.p.) rats (Han. Wistar, Schering SPF, about 200 g of body weight) by occlusion of a (caudal) branch of the left renal artery. The contrast medium was administered (dose: 300 or 500 μmol of Gd/kg of body weight) about 24 hours after the induction of infarction. The animals were studied before and up to 24 hours after contrast medium administration by MR-tomography (SISCO SIS 85, 2 tesla; SE sequence, TR: 400 ms, TE: 15 ms, nt=4, ni=128, FOV: 12-7 cm, SD≈3 mm, 1 layer each axial or coronary).
After the MRI experiments were completed, the anesthetized animals were sacrificed by exsanguination (via the V. cava), and both kidneys were prepared. To verify the infarction (size and position), the left (infarcted) kidney was removed and sliced into disks, and then NBT (“vital”) coloring was carried out.

plasma protein = conditions: cited from earlier work

In the case of `CCOc1ccc(CC(CN(CCN(CC(=O)[O-])CC(=O)[O-])CC(=O)[O-])N(CC(=O)[O-])CC(=O)[O-])cc1.[Gd+3].[Na+].[Na+]` (centres unmarked) [Eovist], the “MRI appearance of nonperfused portion of the kidneys” value ([1]; 300 or 500 μmol of Gd/kg i.v., immediately after substance administration) was “hypointense area”, the “MRI signal (enhancement) in the necrotic area of the kidneys” value ([1]; 300 or 500 μmol of Gd/kg i.v., late phase (about 4-6 hours p.i.), all animals studied) was “considerable signal increase (enhancement)” and the “MRI signal intensity in the non-perfused area” value ([1]; 300 or 500 μmol of Gd/kg i.v., starting at about 15-30 minutes p.i.) was “increased somewhat”. For the same compound, the “Correlation of MRI delineation of the necrotic area with histological vital (NBT) coloring” value ([1]; infarcted left kidney) was “correlated very well” and the Plasma protein bond (plasma protein) was 10%.
